Data on one compound can be found in ChEMBL document CHEMBL3112566, “Thiazolopyridone ureas as DNA gyrase B inhibitors: optimization of antitubercular activity and efficacy” (Bioorg Med Chem Lett, 2014).

This data set is described as follows: AUC in mouse at 300 mg/kg, po. Further details: dose 300 mg/kg, route oral. The class given is ADME, organism-based. The conditions noted are these: plasma.

Each structure is given as a SMILES string.

The term AUC denotes concentration integrated over time. A low value points to low exposure. The compound `CCNC(=O)Nc1nc2cc(-c3cccnc3)c(=O)n(C(C)C)c2s1` registered an exposure (AUC) of 981 µM·h.
